Assay results taken from patent US3992371A, “Penicillins substituted with heterocyclic and substituted phenyl groups” (Sumitomo Chemical Company, Limited, priority 1973, dated 1976).

Legend:
[1] = test system: Pseudomonas aeruginosa 104; assay: Minimal inhibitory concentration, agar dilution method; format: cell-based
From the text: When determined according to the agar dilution method, the penicillins (I) afford the minimal inhibitory concentrations against test microorganisms as shown in Table 2.

Pseudomonas = conditions: background statement; cited from earlier work
[2] = test system: gram-positive and gram-negative bacteria; conditions: background statement; cited from earlier work

SMILES | MIC [1] | antimicrobial activity against Pseudomonas (Pseudomonas) | inhibition of the growth of gram-positive and gram-negative bacteria [2]
CC1(C)S[C@@H]2C(NC(=O)C(N)c3ccccc3)C(=O)N2[C@H]1C(=O)O (stereo partly drawn) [Ampicillin, 6-(α-amino-phenylacetamido)penicillanic acid] | > 500 µg/mL | do not exert any appreciable antimicrobial activity against Pseudomonas | inhibit the growth of various gram-positive and gram-negative bacteria
CC1(C)S[C@@H]2[C@H](NC(=O)C3(N)CCCCC3)C(=O)N2[C@H]1C(=O)O [Cyclacillin, 6-(1-amino-cyclohexanecarboxamide)penicillanic acid] |  | do not exert any appreciable antimicrobial activity against Pseudomonas | inhibit the growth of various gram-positive and gram-negative bacteria
CC1(C)S[C@@H]2[C@H](NC(=O)[C@H](N)C3=CCC=CC3)C(=O)N2[C@H]1C(=O)O [Epicillin] |  | do not exert any appreciable antimicrobial activity against Pseudomonas | inhibit the growth of various gram-positive and gram-negative bacteria
